The values below come from patent publication US7033765B1, “Site-specific drug delivery” (Toronto Research Chemicals, Inc., priority 1997, dated 2006).

As a reminder, the melting point is the temperature, or range, at which the solid turns liquid.

SMILES strings stand for the structures.

Data set [1] has as its target T1, HH1 Na+ channels (Homo sapiens, UniProt Q14524).
T1 construct: expressed in transfected cells; host or cells: Xenopus laevis oocytes (injected)
Put plainly: Two-electrode voltage-clamp of HH1 Na+ channels recorded in oocytes. The class given is cell-based. On the procedure:
(§1) Oocytes were removed from adult female Xenopus.laevis frogs (NASCO, Fort Atkinson, Wis.; XENOPUS, Ann Arbor, Mich.) that had been anesthetized by immersion for 10-25 minutes in a 0.25% solution of tricaine (Sigma Chemical Co., St. Louis, Mo.) in tap water. A 5-fold excess of Na^+ channel protein β subunits compared to α subunits minimized the altered gating properties of Na^+ channel proteins in oocytes. Injected oocytes were incubated at 22° C. for 24-48 hr prior to recording.
(§2) For oocyte recordings, whole-cell currents were recorded at room temperature (approximately 23° C.) using a two-electrode voltage-clamp with 3 M KCl in the pipette and a bath solution containing: 96 mM NaCl, 4 mM KCl, 1 mM MgCl2, 1 mM CaCl2 and 10 mM HEPES (pH=7.6). Electrode pipettes were fabricated from 1.2 mm outer diameter thin-walled borosilicate glass (TW120F-6, World Precision Instruments Inc., Sarasota, Fla.) pulled on a Sutter puller (model P-87). Pipette tips were broken to a diameter of approximately 0.1 mm and plugged with agar made with 3 M KCl for a final resistance of 1-4 MΩ. The circuitry of the amplifier compensated for electrode series resistance (Oocyte Clamp OC-725A, Warner Instruments Inc., Hampden, Conn., USA). Leak subtraction was accomplished using a P/8 protocol from a holding potential of −120 mV. Current was filtered at 2 kHz and digitized at 10 kHz using an IBM-compatible computer, a Warner analog-digital interface (model PP-50 Lab 1), and custom acquisition software. In order to minimize difficulties associated with voltage-clamping oocytes expressing large numbers of channel proteins, whole-cell recordings were limited to oocytes expressing less than 5 μAmps of peak current.
(§3) The desired concentrations of local channel protein anesthetic drugs in ND96 were introduced to the bath by perfusion with at least 30 mL (bath volume=0.6 mL). Total bath exchange took less than 3 minutes and the drugs were allowed to equilibrate with the oocytes for a minimum of 6 minutes prior to recording.
(§4) Current-voltage relationships were produced by stepping the membrane potential from −60 to +50 mV by increments of 5 mV from a holding potential of −80 mV. A repetition frequency of 0.2 Hz was used for such voltage families. Steady-state activation curves of whole-cell currents were calculated from the current-voltage relationships by scaling the peak currents by the net driving force (i.e., V−Erev) using the equation g=I/(V−Erev) where Erev=+45 to +60 mV. Steady-state fast-inactivation curves were constructed by normalizing the current recorded in test pulses to −10 mV following 50 msec prepulses to voltages ranging from −100 to −10 mV. A repetition frequency of 0.2 Hz was used for the steady-state inactivation protocol. Recovery from inactivation was assessed using a two-pulse protocol, in which identical depolarizing voltage pulses to −20 mV for 50 msec were applied to oocytes before (conditioning) and after (test) a variable duration repolarization to −80 mV (recovery potential). The peak current evoked by the second (test) depolarization was normalized to the amplitude of the first (conditioning) depolarization and represents the fraction of channel proteins that had recovered from inactivation during the interpulse recovery period.
A general note: Two-electrode voltage clamp holds a large cell at a set potential and records current.

Data set [2] relates to Na+ channel proteins. Nature of the data set: Whole-cell Na+ current recordings with site-specific agents (channel type not stated). The format is cell-based. The note with it: for slow component of recovery from inactivation in modified channels: FIG. 8B. On the procedure: as §2, §3, §4
(§5) Preliminary studies have been performed on four prototypes of the drug illustrated in FIG. 3. Studies using these drugs were performed on three distinct types of Na^+ channel proteins: skeletal muscle Na^+ channel proteins expressed in Xenopus sp. oocytes, native heart Na^+ channel proteins in isolated rat ventricular myocytes and mutated skeletal muscle Na^+ channel proteins (i.e., Y401C) in which the naturally occurring tyrosine at position 401 was replaced with cysteine, the residue naturally found in heart. Native heart Na^+ channel proteins and Y401C channel proteins are referred to as “heart-like” Na^+ channel proteins.

In data set [3] the target is T2, Y401C Na+ channels (mutated rat skeletal muscle sodium channel protein μ1-2) (Rattus norvegicus, UniProt P15390, Y401C).
T2 construct: expressed in transfected cells; host or cells: Xenopus laevis oocytes (injected)
T2 sequence (P15390 whole entry Y401C): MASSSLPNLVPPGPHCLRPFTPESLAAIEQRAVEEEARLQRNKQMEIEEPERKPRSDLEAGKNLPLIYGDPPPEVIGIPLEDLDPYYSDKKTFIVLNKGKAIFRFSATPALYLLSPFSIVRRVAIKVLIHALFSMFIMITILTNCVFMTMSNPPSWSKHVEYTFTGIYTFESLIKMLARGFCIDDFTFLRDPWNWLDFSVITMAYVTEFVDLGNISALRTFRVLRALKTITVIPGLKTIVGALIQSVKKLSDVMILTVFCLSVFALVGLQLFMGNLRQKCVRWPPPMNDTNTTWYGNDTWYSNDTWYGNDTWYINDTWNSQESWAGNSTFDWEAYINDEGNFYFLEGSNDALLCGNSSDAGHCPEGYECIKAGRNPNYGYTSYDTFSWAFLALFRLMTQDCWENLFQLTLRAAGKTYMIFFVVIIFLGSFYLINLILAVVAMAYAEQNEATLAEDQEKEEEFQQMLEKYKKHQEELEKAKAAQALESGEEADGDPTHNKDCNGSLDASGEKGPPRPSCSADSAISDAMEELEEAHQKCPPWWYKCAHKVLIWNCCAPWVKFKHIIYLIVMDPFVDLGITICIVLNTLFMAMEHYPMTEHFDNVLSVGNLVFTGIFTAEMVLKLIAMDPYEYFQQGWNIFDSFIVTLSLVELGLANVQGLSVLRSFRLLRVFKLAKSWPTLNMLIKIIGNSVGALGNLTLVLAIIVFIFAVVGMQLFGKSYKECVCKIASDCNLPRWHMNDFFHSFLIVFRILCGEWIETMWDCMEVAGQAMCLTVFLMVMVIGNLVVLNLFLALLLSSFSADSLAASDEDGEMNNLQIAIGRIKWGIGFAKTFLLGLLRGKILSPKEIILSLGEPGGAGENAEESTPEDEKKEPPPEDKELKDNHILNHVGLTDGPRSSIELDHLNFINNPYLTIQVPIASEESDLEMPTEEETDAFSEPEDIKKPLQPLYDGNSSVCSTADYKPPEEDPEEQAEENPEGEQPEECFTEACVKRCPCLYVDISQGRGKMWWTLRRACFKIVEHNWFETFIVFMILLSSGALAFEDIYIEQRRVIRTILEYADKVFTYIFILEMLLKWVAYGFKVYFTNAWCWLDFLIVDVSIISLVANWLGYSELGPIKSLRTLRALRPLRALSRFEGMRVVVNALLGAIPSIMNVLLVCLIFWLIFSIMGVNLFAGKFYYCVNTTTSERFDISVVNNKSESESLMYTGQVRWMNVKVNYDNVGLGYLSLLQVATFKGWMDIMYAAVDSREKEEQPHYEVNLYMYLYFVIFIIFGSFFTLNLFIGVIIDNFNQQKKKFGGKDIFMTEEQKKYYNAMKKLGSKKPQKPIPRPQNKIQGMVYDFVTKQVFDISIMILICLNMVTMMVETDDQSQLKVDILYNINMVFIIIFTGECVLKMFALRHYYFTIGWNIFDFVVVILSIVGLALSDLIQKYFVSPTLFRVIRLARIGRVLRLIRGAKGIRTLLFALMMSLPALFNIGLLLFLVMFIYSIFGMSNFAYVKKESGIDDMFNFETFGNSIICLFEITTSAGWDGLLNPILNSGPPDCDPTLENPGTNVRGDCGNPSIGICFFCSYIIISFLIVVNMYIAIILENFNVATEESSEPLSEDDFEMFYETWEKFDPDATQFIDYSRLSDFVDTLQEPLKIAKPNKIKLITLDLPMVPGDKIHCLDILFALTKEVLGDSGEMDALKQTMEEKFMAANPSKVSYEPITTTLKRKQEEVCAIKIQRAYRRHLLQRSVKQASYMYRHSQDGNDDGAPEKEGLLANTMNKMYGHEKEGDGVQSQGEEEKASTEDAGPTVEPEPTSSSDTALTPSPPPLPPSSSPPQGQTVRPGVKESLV
T2 sequence (Q00954 19-218 partner): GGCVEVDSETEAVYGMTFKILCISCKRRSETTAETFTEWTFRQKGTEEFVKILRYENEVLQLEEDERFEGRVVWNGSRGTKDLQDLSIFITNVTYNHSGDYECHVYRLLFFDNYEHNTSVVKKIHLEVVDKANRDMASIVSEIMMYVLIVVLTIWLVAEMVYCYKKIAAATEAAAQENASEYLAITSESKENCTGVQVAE
Put plainly: Two-electrode voltage-clamp of Y401C Na+ channels expressed in Xenopus oocytes. The format is cell-based.

For data set [4], the target named is T3, skeletal muscle (rSkM1) Na+ channels (Rattus norvegicus, UniProt P15390).
T3 construct: expressed in transfected cells; host or cells: Xenopus oocytes (injected)
T3 sequence (P15390 whole entry): as the sequence (P15390 whole entry Y401C) above, with C401Y counted along it
T3 sequence (Q00954 19-218 partner): as the sequence (Q00954 19-218 partner) above
Put plainly: Two-electrode voltage-clamp of skeletal muscle (rSkM1) Na+ channels recorded in oocytes. The class given is cell-based. On the procedure:
as §1
For oocyte recordings, whole-cell currents were recorded at room temperature (approximately 23° C.) using a two-electrode voltage-clamp with 3 M KCl in the pipette and a bath solution containing: 96 mM NaCl, 4 mM KCl, 1 mM MgCl2, 1 mM CaCl2 and 10 mM HEPES (pH=7.6). Electrode pipettes were fabricated from 1.2 mm outer diameter thin-walled borosilicate glass (TW120F-6, World Precision Instruments Inc., Sarasota, Fla.) pulled on a Sutter puller (model P-87). Pipette tips were broken to a diameter of approximately 0.1 mm and plugged with agar made with 3 M KCl for a final resistance of 1-4 MΩ. The circuitry of the amplifier compensated for electrode series resistance (Oocyte Clamp OC-725A, Warner Instruments Inc., Hampden, Conn., USA). […]
as §4, with “A repetition frequency of 0.2 Hz was used for such voltage families.” left out, “A repetition frequency of 0.2 Hz was used for the steady-state inactivation protocol.” left out, “The peak current evoked by the second (test) depolarization was normalized to the amplitude of the first (conditioning) depolarization and represents the fraction of channel proteins that had recovered from inactivation during the interpulse recovery period.” left out

Data set [5] has as its target T4, native heart Na+ channel proteins (Rattus norvegicus, UniProt P15389).
T4 construct: native heart Na^+ channel proteins in isolated rat ventricular myocytes; endogenous in cells; host or cells: isolated rat ventricular myocytes
Put plainly: Patch-clamp recording of native heart Na+ channels in isolated rat ventricular myocytes. The class given is cell-based. On the procedure:
Similar recording methods were used with isolated rat ventricular myocytes using the patch-clamp recording technique.
as §5

Data set [6] concerns cardiac Na+ channels. Put plainly: DTT and Cd2+ test of C2 anchoring to the pore cysteine. The class given is cell-based. The text has this: To determine the role of the cysteine in the pore of cardiac Na^+ channel proteins, effects of C2 on Na^+ channel proteins were examined in the presence of Cd^2+ and dithiothreitol (DTT). […] Thus, it appears that C2 is linked to the Na^+ channel protein via a disulfide bond.
Cd^2+ binds with very high affinity to free sulfhydryls but not disulfide linked sulfhydryls. To determine whether the cysteines are binding to the drug, after washout of the C2 from Na^+ channel proteins channel proteins, Cd^2+ was added. […] Following DTT application, C2 modified channel proteins restore their sensitivity to Cd^2+ and this restoration occurs simultaneous with the reversal of the local anesthetic effects.

Setting [7] is: during application of 500 μM C2.
Setting [8] is: repetitive depolarization to −10 mV at 10 Hz, 30 μM lidocaine.
The mark [9] stands for this setting: with 30 μM lidocaine, HH1 channels.
Where [10] appears, read: with 30 μM lidocaine, Y401C channels.

T1 sequence (Q14524 whole entry): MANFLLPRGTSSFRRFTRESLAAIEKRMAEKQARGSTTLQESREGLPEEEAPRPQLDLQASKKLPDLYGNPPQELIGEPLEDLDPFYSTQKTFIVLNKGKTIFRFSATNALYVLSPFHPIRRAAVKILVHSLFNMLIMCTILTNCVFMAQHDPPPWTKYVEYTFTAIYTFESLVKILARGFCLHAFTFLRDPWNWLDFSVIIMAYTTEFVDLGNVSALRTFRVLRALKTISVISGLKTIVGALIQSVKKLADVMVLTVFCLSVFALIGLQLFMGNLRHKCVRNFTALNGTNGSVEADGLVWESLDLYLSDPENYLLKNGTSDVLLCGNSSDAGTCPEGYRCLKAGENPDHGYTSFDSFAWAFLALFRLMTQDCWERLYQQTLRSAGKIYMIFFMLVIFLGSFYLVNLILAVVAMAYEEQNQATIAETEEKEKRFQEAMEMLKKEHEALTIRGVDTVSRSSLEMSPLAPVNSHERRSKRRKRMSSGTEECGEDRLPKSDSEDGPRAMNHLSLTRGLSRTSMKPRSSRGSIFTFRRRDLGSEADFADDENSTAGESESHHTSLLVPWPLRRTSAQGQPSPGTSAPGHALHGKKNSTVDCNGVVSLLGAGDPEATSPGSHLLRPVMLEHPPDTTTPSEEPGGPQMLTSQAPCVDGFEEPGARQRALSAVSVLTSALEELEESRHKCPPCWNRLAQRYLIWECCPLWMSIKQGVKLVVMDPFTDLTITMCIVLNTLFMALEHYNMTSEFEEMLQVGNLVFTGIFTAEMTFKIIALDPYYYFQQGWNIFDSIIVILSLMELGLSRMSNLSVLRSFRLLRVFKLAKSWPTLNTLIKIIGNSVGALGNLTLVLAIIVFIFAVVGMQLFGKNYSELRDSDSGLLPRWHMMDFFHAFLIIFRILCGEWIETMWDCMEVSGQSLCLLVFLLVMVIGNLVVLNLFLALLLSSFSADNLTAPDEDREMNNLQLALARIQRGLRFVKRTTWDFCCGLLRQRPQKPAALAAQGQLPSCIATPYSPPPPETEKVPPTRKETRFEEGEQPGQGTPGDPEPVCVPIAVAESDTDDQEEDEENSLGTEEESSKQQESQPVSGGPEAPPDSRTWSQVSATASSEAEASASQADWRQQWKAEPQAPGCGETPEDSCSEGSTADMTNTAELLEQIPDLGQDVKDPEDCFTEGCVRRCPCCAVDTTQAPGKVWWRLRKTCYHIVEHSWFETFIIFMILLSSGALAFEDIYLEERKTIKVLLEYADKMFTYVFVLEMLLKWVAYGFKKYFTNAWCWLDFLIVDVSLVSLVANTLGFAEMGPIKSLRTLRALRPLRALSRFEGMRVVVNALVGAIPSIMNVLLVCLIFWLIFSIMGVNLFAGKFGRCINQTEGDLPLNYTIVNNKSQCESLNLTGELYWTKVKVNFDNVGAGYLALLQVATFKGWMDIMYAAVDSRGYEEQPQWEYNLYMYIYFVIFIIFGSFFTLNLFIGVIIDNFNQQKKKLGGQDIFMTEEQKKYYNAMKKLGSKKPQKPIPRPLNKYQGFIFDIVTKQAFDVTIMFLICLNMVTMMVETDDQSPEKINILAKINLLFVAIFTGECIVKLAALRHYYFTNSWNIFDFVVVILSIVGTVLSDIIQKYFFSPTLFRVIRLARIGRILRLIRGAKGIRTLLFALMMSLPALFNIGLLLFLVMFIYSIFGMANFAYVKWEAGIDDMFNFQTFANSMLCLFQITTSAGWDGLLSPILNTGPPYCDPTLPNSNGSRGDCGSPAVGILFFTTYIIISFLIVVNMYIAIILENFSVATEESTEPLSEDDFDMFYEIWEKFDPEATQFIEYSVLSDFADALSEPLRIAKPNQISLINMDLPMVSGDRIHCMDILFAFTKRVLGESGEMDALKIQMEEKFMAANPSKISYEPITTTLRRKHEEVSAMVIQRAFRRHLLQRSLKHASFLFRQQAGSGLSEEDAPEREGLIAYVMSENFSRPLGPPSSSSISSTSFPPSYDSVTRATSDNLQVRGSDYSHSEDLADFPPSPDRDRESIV

`CS(=O)(=O)SCCOC(=O)c1ccc(N)cc1` [Formula C2, 4-(4-aminophenyl)-4-oxo-3-oxabutyl methanethiosulfonate] came in with a melting point of 112 to 113 °C. Besides, the “time constant for recovery from inactivation” value (“time constant for recovery” for short) in data set [1] (after the application of C2 (washout)) was determined as 66 ms. Moreover, the “time constant for recovery” value in data set [1] (setting [7]) amounted to 45 ms. In data set [2], the “use-dependence of Na+ channel current inhibition” value is on record as “very little use-dependent block” and the “slow component of recovery from inactivation in modified channels” value was “not observed”. Moreover, in data set [2] (100 μM to 1 mM), the recovery from inactivation result is “slowing”, the steady-state inactivation curve entry is “leftward shifts”, the “whole-cell Na+ current” value is recorded as “decreases” and the “whole-cell Na+ current decay following channel activation” value is recorded as “enhanced rates”. Besides, the “shift of the sensitivity of the channels to block by lidocaine” value in data set [2] (C2 anchoring, FIG. 9) is listed as “nearly two orders of magnitude”. Besides, the “reversibility of effects on washout” value in data set [3] (Y401C channels) is on record as “inability to wash out”. The “time constant for recovery” value in data set [3] (after C2 application (washout)) was determined as 40.4 ms. Besides, the “time constant for recovery” value in data set [3] (setting [7]) came to 39.0 ms. For the same compound, the “time constant for recovery” value in data set [4] (after C2 washout) came out at 13.7 ms. Further, the “time constant for recovery” value in data set [4] (in the presence of 500 μM C2) stood at 56.7 ms. The reversibility on washout result in data set [4] (skeletal tissue) was “washed out”. For the same compound, the “reversibility of binding on washout” value in data set [5] is listed as “irreversible”. Also, in data set [6] (10 mM DTT after C2 washout), the “reversal of the current decrease by DTT” value is “completely reversed”. The “block of Na+ current by μM Cd2+ after washout of the agent” value in data set [6] (Cd2+ added after C2 washout) is listed as “no longer blocked”. Also, the “change of whole-cell currents” value in data set [6] (following C2 washout (FIG. 7A)) is reported as “decreased”. The “effect of DTT on the irreversible binding after washout” value in data set [6] (presence of DTT) is “totally inhibited”.
In turn, `CS(=O)(=O)SCCCCCCOC(=O)c1ccc(N)cc1` [Formula C6, 8-(4-aminophenyl)-8-oxo-7-oxaoctyl methanethiosulfonate] registered a melting point of 85 to 86 °C. Moreover, in data set [2], the “potency relative to C2” value is reported as “far more potent than C2”.
`CS(=O)(=O)SCCCCCCCCCCOC(=O)c1ccc(N)cc1` [Formula C10, 12-(4-aminophenyl)-12-oxo-11-oxadodecyl methanethiosulfonate] yielded a melting point of 73 to 74 °C.
On to `Cc1cccc(C)c1NC(=O)CNCCSS(C)(=O)=O` [Formula T2, 1-(2,6-dimethylphenyl)-2,8,8-trioxo-1,4-diaza-7,8-dithianonane], for which the “use-dependence of Na+ channel current inhibition” value in data set [2] is “use-dependent”.
As for `CCOC(=O)c1ccc(N)cc1` [benzocaine, reference compound], the “slow component of recovery from inactivation in modified channels” value in data set [2] is on record as “not observed”.
Take `CCN(CC)CC(=O)Nc1c(C)cccc1C` [lidocaine, reference compound]: the use-dependent block result in data set [1] (setting [8]) and in data set [3] (setting [8]) was “use-dependent block” throughout. The “tfast, first rapid phase of recovery from inactivation” value in data set [1] (setting [9]) is 16.11 ms; in data set [3] (setting [10]), 5.0 ms. In addition, the “tslow, second slow component of recovery from inactivation” value in data set [1] (setting [9]) came out at 763 ms; in data set [3] (setting [10]), 365 ms.
